Earlier results in paper PMC11790914, “Chemogenomics for steroid hormone receptors (NR3)” (Communications Chemistry, 2025).

Conditions: other targets with annotated bioactivities at ≤10 µM in previously published dataset; cited from earlier work

Structure (SMILES)	Reason for exclusion: number of annotated off-targets [off-targets]
C[C@]12CC[C@H]3[C@@H](CCC4=CC(=O)CC[C@@]43C)[C@@H]1CC[C@@H]2O [Testosterone]	> 5
C[C@]12CC[C@@H]3c4ccc(O)cc4CC[C@H]3[C@@H]1C[C@@H](O)[C@@H]2O [Estriol]	> 5
C[C@]12CC[C@H](O)CC1=CC[C@@H]1[C@@H]2CC[C@]2(C)C(n3cnc4ccccc43)=CC[C@@H]12 [Galeterone]	> 5
COc1ccc2c(c1)c(CC(=O)O)c(C)n2C(=O)c1ccc(Cl)cc1 [Indomethacin]	> 5
C[C@]12CC[C@@H]3c4ccc(O)cc4CC[C@H]3[C@@H]1CC[C@@H]2O [17β-Estradiol]	> 5
CCC(=C(c1ccc(O)cc1)c1ccc(OCCN(C)C)cc1)c1ccccc1 [(E,Z)-Hydroxytamoxifen]	> 5
CC(C)C(=O)Nc1ccc([N+](=O)[O-])c(C(F)(F)F)c1 [Flutamide]	> 5
CC(=O)O[C@]1(C(C)=O)CC[C@H]2[C@@H]3C[C@H](C)C4=CC(=O)CC[C@]4(C)[C@H]3CC[C@@]21C [Medroxyprogesterone acetate]	> 5
CC(O)(CS(=O)(=O)c1ccc(F)cc1)C(=O)Nc1ccc(C#N)c(C(F)(F)F)c1 (stereo not shown) [Bicalutamide]	> 5
Oc1c(Cl)cc(Cl)c(Cl)c1Cc1c(O)c(Cl)cc(Cl)c1Cl [Hexachlorophene]	> 5
CC/C(=C(\c1ccccc1)c1ccc(OCCN(C)C)cc1)c1ccccc1 [Tamoxifen]	> 5
O=c1c(-c2ccc(O)cc2)coc2cc(O)ccc12 [Daidzein]	> 5
O=c1oc2cc(O)ccc2c2oc3cc(O)ccc3c12 [Coumestrol]	> 5
C[C@]12CC[C@@H]3c4ccc(OC(=O)c5ccccc5)cc4CC[C@H]3[C@@H]1CC[C@@H]2O [Estradiol benzoate]	> 5
O=c1c(-c2ccc(O)cc2)coc2cc(O)cc(O)c12 [Genistein]	> 5
C[C@]12C=CC(=O)C=C1CC[C@H]1[C@@H]3C[C@@H](O)[C@](O)(C(=O)CO)[C@@]3(C)C[C@H](O)[C@@]12F [Triamcinolone]	> 5
C/C=C1/C(=O)C[C@H]2[C@@H]3CCC4=CC(=O)CC[C@]4(C)[C@H]3CC[C@]12C [E-Guggulsterone]	> 5
C[C@]12C=CC(=O)C=C1CC[C@@H]1[C@@H]2[C@@H](O)C[C@@]2(C)[C@H]1CC[C@]2(O)C(=O)CO [Prednisolone]	> 5
COc1cc([C@@H]2c3cc4c(cc3[C@H](O)[C@H]3COC(=O)[C@H]23)OCO4)cc(OC)c1OC [Podophyllotoxin]	> 5
CC(=O)S[C@@H]1CC2=CC(=O)CC[C@]2(C)[C@H]2CC[C@@]3(C)[C@@H](CC[C@@]34CCC(=O)O4)[C@H]12 [Spironolactone]	> 5
CC(=O)[C@H]1CC[C@H]2[C@@H]3CCC4=CC(=O)CC[C@]4(C)[C@H]3CC[C@]12C [Progesterone]	> 5
CCN(CC)CCOc1ccc(/C(=C(/Cl)c2ccccc2)c2ccccc2)cc1.Cl [Enclomiphene hydrochloride]	> 5
C[C@]12CCC(=O)C[C@@H]1CC[C@@H]1[C@@H]2CC[C@]2(C)[C@@H](O)CC[C@@H]12 [Dihydrotestosterone]	> 5
C[C@@H]1C[C@H]2[C@@H]3C[C@H](F)C4=CC(=O)C=C[C@]4(C)[C@@]3(F)[C@@H](O)C[C@]2(C)[C@@]1(OC(=O)c1ccco1)C(=O)SCF [Fluticasone furoate]	> 5
CC(=O)[C@@]1(O)CC[C@H]2[C@@H]3CCC4=CC(=O)CC[C@]4(C)[C@H]3CC[C@@]21C [Hydroxyprogesterone]	> 5
